Experimental data: article PMC8284440, “Toward New Transmission-Blocking Combination Therapies: Pharmacokinetics of 10-Amino-Artemisinins and 11-Aza-Artemisinin and Comparison with Dihydroartemisinin and Artemether” (Antimicrobial Agents and Chemotherapy, 2021)
Read-outs that look alike come from different tables or passages of the source. Each block holds one molecule with its values, some of them ahead of it.

Tests used:
[1] = tested on: late stage (>90% stage IV and V) P. falciparum NF54 gametocytes; settings: cited from earlier work
[2] = Metabolic stability in rat liver microsomes; type: in vitro ADME; design: half-life / CLint scaled: dose or concentration left out as unconfirmed; settings: for CLint scaled: calculated, read-out: Intrinsic liver clearance rate CLint Rat; for half-life: read-out: Microsomal half-life t1/2 Rat
Method: (ii) Metabolic stability in liver microsomes. The metabolic stability assay was performed in duplicate using 96-deepwell plates. Each compound (0.4 mM) was incubated individually in mouse, rat, and pooled human liver microsomes (0.4 mg/ml) at 37°C in the presence and absence of the cofactor NADPH (1 mM). An aliquot was taken at 0, 5, 10, 30, and 60 min, and the reaction was quenched by adding 300 μl of ice-cold acetonitrile containing the internal standard carbamazepine (0.0236 μg/ml) ([88]). The test compounds in the supernatant were analyzed by means of LC-MS/MS as described in “Sample analysis” below. The normalized data for each sample were used to calculate the in vitro half-life, intrinsic clearance rate, and hepatic extraction ratio from the results of this assay using the following equations ([88]).Equation 1. Normalized area. (1) Normalized area=(Peak area of sample at time point/Peak area of internal standard) Equation 2. Percent parent remaining. (2) % Parent=Normalized peak area of sample at time point/Normalized peak area of sample at t=0×100 Equation 3. Calculated t1/2. (3) t1/2=−0.693/λ where λ is the slope of the ln (% parent remaining) versus time curve of the compound.Equation 4. CLint. (4) CLint=[0.693/t1/2(min)]×[Volume of incubation (μl)/Microsomal protein (μg)] Equation 5. Hepatic extraction ratio. (5) EH=fu×CLint/QH + fu×CLint
Sample extraction. […] The organic layer was then transferred and evaporated under a gentle stream of nitrogen at room temperature for 30 min. The dried samples were reconstituted in mobile phase, and a 5 μl sample was injected for LC-MS/MS analysis. The only exception was the arylurea 10, for which no liquid-liquid extraction was conducted; instead, the 200 μl acetonitrile solution was evaporated under a gentle stream of nitrogen at room temperature. The dried sample was reconstituted in the mobile phase, and a 5 μl sample was injected for LC-MS/MS analysis. The plasma samples for each compound from the in vivo studies were extracted by mixing 350 μl ethyl acetate with 15 μl of plasma sample and 35 μl of universal buffer containing internal standard at pH 8. The samples were vortexed for 1 min and centrifuged for 5 min, and the organic layer was then transferred and evaporated under a gentle stream of nitrogen at room temperature for 30 min. The dried samples were each reconstituted in the mobile phase, and a 5 μl sample was injected for LC-MS/MS analysis.
LC-MS/MS analysis. For all the artemisinins except the arylurea 10, gradient chromatography was performed on a Phenomenex (Torrance, CA, USA) Luna PFP(2) analytical column (100 Å, 5 μm, 2 by 50 mm) and an AB Sciex API 5500 mass spectrometer which was operated at unit resolution in the multiple reaction monitoring (MRM) mode. The HPLC method used was a gradient method with 5 mM ammonium acetate and 0.1% acetic acid in water as the aqueous phase and a mixture of acetonitrile and methanol (1:1 vol/vol) containing 5% of the aqueous phase as the organic phase ([89]). The arylurea 10 was analyzed using a Phenomenex Gemini NX-C18 (5 μm, 2.1 mm by 50 mm) column with an AB Sciex 3200 QTRAP mass spectrometer operated at unit resolution in the MRM mode. The HPLC method used was a gradient method with 5 mM ammonium acetate and 0.1% acetic acid in water as the aqueous phase and a mixture of acetonitrile and methanol (1:1 vol/vol). The transitions of the molecular ions were monitored, as listed in Table S8 in the supporting information. The calibration range was between 0.002 μg/ml and 6.250 μg/ml. Data acquisition and evaluation were performed using Analyst 1.6.2 software (Applied Biosystems, Foster City, CA, USA). The formation of the putative metabolite DHA from the amino-artemisinins and the metabolite M1 of artemisone were evaluated in these mice PK studies; the MRM transitions of DHA and M1 (Table S8) were thus included in the LC-MS/MS assays.

[3] = Plasma protein binding (ultracentrifugation); type: in vitro ADME; settings: pooled plasma, human plasma, read-out: Plasma protein binding fu
Method: (iii) Plasma protein binding. Plasma protein binding was measured using an ultracentrifugation method. The assay was performed using a 96-well microtiter plate with pooled human plasma spiked with the test compound (10 μM). […] This served as the total concentration sample. After preincubation at 37°C for 1 h, duplicate aliquots of the spiked plasma were transferred to ultracentrifugation tubes and ultracentrifuged for 4 h (216,937 × g, 37°C, Beckman Optima L-80XP). […] Sample extraction. […] LC-MS/MS analysis.

[4] = tested on: early stage (>90% stage I-III) P. falciparum NF54 gametocytes; settings: cited from earlier work
[5] = Table S3, ± SEM, ref 1 and 2 (supplement; main text 47, 48), read-out: Late Stage (LG, Luc 72 h) IC50
[6] = Table S3, ± SEM, ref 1 and 2 (supplement; main text 47, 48), read-out: Early Stage (EG, Luc 48 h) IC50
[7] = Table S4, n = 1, ref 4 (supplement; main text 62), read-out: Late stage IC50 (Luciferase 72 h)
[8] = Table S4, ± SEM, n = 3, ref 4 (supplement; main text 62), read-out: Early stage IC50 (Luciferase 48 h)

SMILES: C[C@H]1[C@H](N2CCSCC2)O[C@@H]2O[C@@]3(C)CC[C@H]4[C@H](C)CC[C@@H]1[C@@]24OO3 [Artemiside 5, artemiside]
IC50 [1, 5]: 1.5 ± 0.5 nM
Hepatic extraction ratio EH Rat [2]: 1.0
CLint scaled [2]: 1390 mL/min/kg
half-life [2]: < 10 min
fraction unbound at 4 h, 10 µM [3]: 0.23
IC50 [4, 6]: 16.4 ± 1 nM

SMILES: C[C@H]1[C@H](N2CCS(=O)(=O)CC2)O[C@@H]2O[C@@]3(C)CC[C@H]4[C@H](C)CC[C@@H]1[C@@]24OO3 [Artemisone 6, artemisone]
IC50 [1, 5]: 42.4 ± 3.3 nM
Hepatic extraction ratio EH Rat [2]: 0.9
CLint scaled [2]: 342 mL/min/kg
half-life [2]: < 10 min
fraction unbound at 4 h, 10 µM [3]: 0.14
IC50 [4, 6]: 1.94 nM

SMILES: CO[C@H]1O[C@@H]2O[C@@]3(C)CC[C@H]4[C@H](C)CC[C@@H]([C@H]1C)[C@@]24OO3 [Artemether 3, artemether]
IC50 [1, 7]: 224 nM
Hepatic extraction ratio EH Rat [2]: 0.9
CLint scaled [2]: 988 mL/min/kg
half-life [2]: < 10 min
fraction unbound at 4 h, 10 µM [3]: 0.14
IC50 [4, 8]: 37.7 ± 2.08 nM

Hepatic extraction ratio EH Rat [2]: 0.7
CLint scaled [2]: 108 mL/min/kg
half-life [2]: 28.8 min
fraction unbound at 4 h, 10 µM [3]: 0.25
SMILES: C[C@H]1[C@H](N2C=CS(=O)(=O)CC2)O[C@@H]2O[C@@]3(C)CC[C@H]4[C@H](C)CC[C@@H]1[C@@]24OO3 [M1 12]

SMILES: C[C@H]1[C@@H](O)O[C@@H]2O[C@@]3(C)CC[C@H]4[C@H](C)CC[C@@H]1[C@@]24OO3 [DHA 2, dihydroartemisinin]
IC50 [1, 5]: 33.7 ± 1.98 nM
Hepatic extraction ratio EH Rat [2]: 0.4
CLint scaled [2]: 34.7 mL/min/kg
half-life [2]: 90 min
IC50 [4, 6]: 43 ± 3.9 nM

SMILES: C[C@H]1[C@H](N2CCN(C(=O)Nc3ccc(F)cc3)CC2)O[C@@H]2O[C@@]3(C)CC[C@H]4[C@H](C)CC[C@@H]1[C@@]24OO3 [Arylurea 10]
IC50 [1, 5]: 17 ± 7 nM
fraction unbound at 4 h, 10 µM [3]: 0.02
IC50 [4, 6]: 36 ± 10.2 nM

SMILES: C[C@@H]1CC[C@H]2[C@@H](C)C(=O)N[C@@H]3O[C@@]4(C)CC[C@@H]1[C@]32OO4 [11-Aza-artemisinin 11, 11-aza-artemisinin]
IC50 [1, 7]: 166 nM
Hepatic extraction ratio EH Rat [2]: 0.1
CLint scaled [2]: 9 mL/min/kg
half-life [2]: > 150 min
fraction unbound at 4 h, 10 µM [3]: 0.13
IC50 [4, 8]: 170 nM

SMILES: C[C@H]1[C@H](NS(N)(=O)=O)O[C@@H]2O[C@@]3(C)CC[C@H]4[C@H](C)CC[C@@H]1[C@@]24OO3 [Sulfamide 7]
IC50 [1, 5]: 419 nM
Hepatic extraction ratio EH Rat [2]: 0.4
CLint scaled [2]: 32.9 mL/min/kg
half-life [2]: 94.9 min
fraction unbound at 4 h, 10 µM [3]: 0.17
IC50 [4, 6]: 15 ± 2 nM
